# From patent US9181288B2, “Azepane derivatives and methods of treating hepatitis B infections” (Novira Therapeutics, Inc., priority 2014, dated 2015)
# Key:
# [1] = system: HBV replication in HepG2-2.2.15 cells; experiment: Inhibition of HBV replication dot-blot assay; type: cell-based; conditions: Hepatitis B virus, 144 h, six days, reduction in HBV DNA levels
# Experimental: Compounds active in the HBV assembly assay are tested for their activity and toxicity in cellular assay. In the first anti-viral assay, the ability of compounds to inhibit HBV replication in an HBV-producing hepatoma cell line using the dot-blot method is evaluated.
# Briefly, confluent monolayers of HepG2-2.2.15 cells are incubated with complete medium containing various concentrations of a test compound. Three days later, the culture medium is replaced with fresh medium containing the appropriately diluted test compound. Six days following the initial administration of the test compound, the cell culture supernatant is collected, and cell lysis is performed. The samples are applied onto Nylos membranes and DNA is immobilized to the membrane by UV cross-linking. After pre-hybridization, the HBV probe is added and the hybridization is performed overnight. The membranes are exposed to the Kodak films; antiviral activity is calculated from the reduction in HBV DNA levels (EC50). The EC50 for antiviral activity is calculated from the dose response curves of active compounds. Assay performance over time is monitored by the use of the standard positive control compounds ETV, BAY 41-4109, and HAP-1.
# Selected compounds were tested for their activity and toxicity in cellular assay. In the first anti-viral assay, the ability of compounds to inhibit HBV replication in an HBV-producing hepatoma cell line using the dot-blot method was evaluated.
# Confluent monolayers of HepG2-2.2.15 cells were incubated with complete medium containing various concentrations of a test compound. Three days later, the culture medium was replaced with fresh medium containing the appropriately diluted test compound. Six days following the initial administration of the test compound, the cell culture supernatant was collected, and cell lysis was performed. The samples were applied onto Nylos membranes and DNA was immobilized to the membrane by UV cross-linking. After pre-hybridization, the HBV probe was added and the hybridization was performed overnight. The membranes were exposed to the Kodak films; antiviral activity was calculated from the reduction in HBV DNA levels (EC50). The EC50 for antiviral activity was calculated from the dose response curves of active compounds. Assay performance over time was monitored by the use of the standard positive control compounds ETV, BAY 41-4109, and HAP-1.
# [2] = biological target: HBV C150Bo capsid protein (mutant C150 HBV core protein labeled with BODIPY-FL) (Hepatitis B virus genotype D subtype adw, UniProt P03147, C107A/C48A/C61A/R150C); experiment: HBV assembly assay (fluorescence quenching in vitro capsid assembly); type: biochemical; conditions: at about 10 μM; 50 mM Hepes pH 7.5, 150 mM NaCl, 1 hour room temperature
# HBV C150Bo capsid protein (mutant C150 HBV core protein labeled with BODIPY-FL), sequence (P03147 1-150 C48A/C61A/C107A/R150C): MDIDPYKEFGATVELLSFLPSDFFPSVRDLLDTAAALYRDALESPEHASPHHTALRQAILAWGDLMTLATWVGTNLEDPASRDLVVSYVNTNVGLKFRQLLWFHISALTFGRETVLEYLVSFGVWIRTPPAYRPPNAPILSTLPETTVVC
SMILES,inhibition at 10 µM [1] [%],Activity (HBV assembly assay) [2]
O=C(Nc1ccc(F)c(Cl)c1)c1ccc(F)c(S(=O)(=O)N2C[C@H](O)CC[C@@H](O)C2)c1 [Compound 2433_D1],> 50,+ (‘+’ indicates >50% activity at about 10 μM)
O=C(Nc1cc(F)c(F)c(F)c1)c1ccc(F)c(S(=O)(=O)N2CCCC(F)C(O)C2)c1 (stereo not drawn) [Compound 1820],> 50,+ (‘+’ indicates >50% activity at about 10 μM)
CC1(O)CCCN(S(=O)(=O)c2cc(C(=O)Nc3cc(F)c(F)c(F)c3)ccc2CF)CC1 (stereo not drawn) [Compound 1829-2],> 50,+ (‘+’ indicates >50% activity at about 10 μM)
O=C(Nc1ccc(F)c(F)c1)c1ccc(F)c(S(=O)(=O)N2CC(O)CC3CC3C2)c1 (stereo not drawn) [Compound 2547],> 50,+ (‘+’ indicates >50% activity at about 10 μM)
CC(=O)O[C@@H]1CC[C@H](OC(C)=O)CN(S(=O)(=O)c2cc(C(=O)Nc3cc(F)c(F)c(F)c3)ccc2F)C1 [Compound 2625_D2],> 50,+ (‘+’ indicates >50% activity at about 10 μM)
O=C(Nc1cc(F)c(F)c(F)c1)c1ccc(CF)c(S(=O)(=O)N2CC(O)CC3CC3C2)c1 (stereo not drawn) [Compound 2550],> 50,+ (‘+’ indicates >50% activity at about 10 μM)
CC(=O)O[C@@H]1CC[C@H](OC(C)=O)CN(S(=O)(=O)c2cc(C(=O)Nc3ccc(F)c(Cl)c3)ccc2F)C1 [Compound 2626_D2],> 50,+ (‘+’ indicates >50% activity at about 10 μM)
O=C(Nc1ccc(F)c(Cl)c1)c1ccc(F)c(S(=O)(=O)N2CCOC[C@H](O)C2)c1 [Compound 1893_E2],> 50,+ (‘+’ indicates >50% activity at about 10 μM)
O=C(Nc1ccc(F)c(Cl)c1)c1ccc(F)c(S(=O)(=O)N2CCCC(F)[C@@H](O)C2)c1 (stereo partly drawn) [Compound 1822_D1],> 50,+ (‘+’ indicates >50% activity at about 10 μM)
"O=C(Nc1ccc(F)c(Cl)c1)c1ccc(CCF)c(S(=O)(=O)N2CCCC(O)CC2)c1 (stereo not drawn) [Compound 2205, N-(3-chloro-4-fluoro-phenyl)-4-(2-fluoroethyl)-3-(4-hydroxyazepan-1-yl)sulfonyl-benzamide]",> 50,+ (‘+’ indicates >50% activity at about 10 μM)
O=C(Nc1cc(F)c(F)c(F)c1)c1ccc(F)c(S(=O)(=O)N2CCCC(O)C(F)(F)C2)c1 (stereo not drawn) [Compound 2199],> 50,+ (‘+’ indicates >50% activity at about 10 μM)
O=C(Nc1ccc(F)c(Cl)c1)c1ccc(F)c(S(=O)(=O)N2CCCC(F)[C@H](O)C2)c1 (stereo partly drawn) [Compound 1822_D2],> 50,+ (‘+’ indicates >50% activity at about 10 μM)
O=C(Nc1ccc(F)c(Cl)c1)c1ccc(F)c(S(=O)(=O)N2CCCC(F)CC2)c1 (stereo not drawn) [Compound 2123],> 50,+ (‘+’ indicates >50% activity at about 10 μM)
O=C(Nc1cc(F)c(F)c(F)c1)c1ccc(F)c(S(=O)(=O)N2CC(O)CC3CC3C2)c1 (stereo not drawn) [Compound 2548],> 50,+ (‘+’ indicates >50% activity at about 10 μM)
O=C(Nc1cc(F)c(F)c(F)c1)c1ccc(F)c(S(=O)(=O)N2CCCC(O)CC2)c1 (stereo not drawn) [Compound 1765],> 50,+ (‘+’ indicates >50% activity at about 10 μM)
CC1(O)CCCCN(S(=O)(=O)c2cc(C(=O)Nc3ccc(F)c(Cl)c3)ccc2F)C1 (stereo not drawn) [Compound 1890],> 50,+ (‘+’ indicates >50% activity at about 10 μM)
CC1(O)CCCN(S(=O)(=O)c2cc(C(=O)Nc3cc(F)c(F)c(F)c3)ccc2F)CC1 (stereo not drawn) [Compound 1944],> 50,+ (‘+’ indicates >50% activity at about 10 μM)

SMILES,inhibition at 10 µM [1] [%],Activity (HBV assembly assay) [2]
O=C(Nc1ccc(F)c(Cl)c1)c1ccc(CF)c(S(=O)(=O)N2CCCC(O)CC2)c1 (stereo not drawn) [Compound 1916],–,+ (‘+’ indicates >50% activity at about 10 μM)
COc1ccc(C(=O)Nc2ccc(F)c(Cl)c2)cc1S(=O)(=O)N1CCOCC(O)C1 (stereo not drawn) [Compound 1980],> 50,+ (‘+’ indicates >50% activity at about 10 μM)
O=C(Nc1cc(F)c(F)c(F)c1)c1ccc(CF)c(S(=O)(=O)N2CCOCC(O)C2)c1 (stereo not drawn) [Compound 1981],> 50,+ (‘+’ indicates >50% activity at about 10 μM)
"O=C(Nc1ccc(F)c(Cl)c1)c1ccc(F)c(S(=O)(=O)N2C[C@H](O)CC[C@H](O)C2)c1 [Compound 2433_D2, N-(3-chloro-4-fluoro-phenyl)-3-(3,6-dihydroxyazepan-1-yl)sulfonyl-4-fluoro-benzamide]",> 50,+ (‘+’ indicates >50% activity at about 10 μM)
O=C(Nc1ccc(F)c(Cl)c1)c1ccc(F)c(S(=O)(=O)N2CCOCC(O)C2)c1 (stereo not drawn) [Compound 1893],> 50,+ (‘+’ indicates >50% activity at about 10 μM)
O=C(Nc1ccc(F)c(Cl)c1)c1ccc(F)c(S(=O)(=O)N2CCCC[C@@H](O)C2)c1 [Compound 1763_E1],> 50,+ (‘+’ indicates >50% activity at about 10 μM)
CC1(O)COCCN(S(=O)(=O)c2cc(C(=O)Nc3ccc(F)c(Cl)c3)ccc2F)C1 (stereo not drawn) [Compound 1986],> 50,+ (‘+’ indicates >50% activity at about 10 μM)
O=C(Nc1ccc(F)c(F)c1)c1ccc(F)c(S(=O)(=O)N2CCCC(F)[C@@H](O)C2)c1 (stereo partly drawn) [Compound 1821_D1],> 50,+ (‘+’ indicates >50% activity at about 10 μM)
O=C(Nc1ccc(F)c(Cl)c1)c1ccc(F)c(S(=O)(=O)N2CCOCC(O)(C3CC3)C2)c1 (stereo not drawn) [Compound 1989],> 50,+ (‘+’ indicates >50% activity at about 10 μM)
Cc1ccc(C(=O)Nc2ccc(F)c(F)c2)cc1S(=O)(=O)N1CCCCC(O)C1 (stereo not drawn) [Compound 1914],> 50,+ (‘+’ indicates >50% activity at about 10 μM)
O=C(Nc1ccc(F)c(F)c1)c1ccc(F)c(S(=O)(=O)N2CCCC(F)[C@H](O)C2)c1 (stereo partly drawn) [Compound 1821_D2],> 50,+ (‘+’ indicates >50% activity at about 10 μM)
Cc1ccc(C(=O)Nc2ccc(F)c(Cl)c2)cc1S(=O)(=O)N1CCCC(O)CC1 (stereo not drawn) [Compound 1910],> 50,+ (‘+’ indicates >50% activity at about 10 μM)
O=C(Nc1ccc(F)c(Cl)c1)c1cccc(S(=O)(=O)N2CCOCC(O)C2)c1 (stereo not drawn) [Compound 1977],> 50,+ (‘+’ indicates >50% activity at about 10 μM)
COc1ccc(C(=O)Nc2ccc(F)c(Cl)c2)cc1S(=O)(=O)N1CCCC(O)C(F)C1 (stereo not drawn) [Compound 2114_D1],> 50,+ (‘+’ indicates >50% activity at about 10 μM)
O=C(Nc1ccc(F)c(Cl)c1)c1ccc(F)c(S(=O)(=O)N2CCCC(O)C(O)C2)c1 (stereo not drawn) [Compound 1909],> 50,–
COc1ccc(C(=O)Nc2ccc(F)c(Cl)c2)cc1S(=O)(=O)N1CCCC(O)C(F)C1 (stereo not drawn) [Compound 2114_D2],–,+ (‘+’ indicates >50% activity at about 10 μM)
